Laboratory results as given in patent publication US8802678B2, “Carbonylated (aza) cyclohexanes as dopamine D3 receptor ligands” (Bioprojet, priority 2006, dated 2014).
Counter-ions that a name gives are not always drawn.

What was measured:
human D3 receptor = human D3 receptor (Homo sapiens, UniProt P35462); assay: [3H]spiperone binding, membranes of CHO cells transfected with human D3 receptor cDNA; conditions: affinity for the human D3 receptor; [3H]spiperone 0.5-2 nM, CHO-hD3 membranes, 60 minutes at room temperature
Chain of human D3 receptor (P35462 whole entry): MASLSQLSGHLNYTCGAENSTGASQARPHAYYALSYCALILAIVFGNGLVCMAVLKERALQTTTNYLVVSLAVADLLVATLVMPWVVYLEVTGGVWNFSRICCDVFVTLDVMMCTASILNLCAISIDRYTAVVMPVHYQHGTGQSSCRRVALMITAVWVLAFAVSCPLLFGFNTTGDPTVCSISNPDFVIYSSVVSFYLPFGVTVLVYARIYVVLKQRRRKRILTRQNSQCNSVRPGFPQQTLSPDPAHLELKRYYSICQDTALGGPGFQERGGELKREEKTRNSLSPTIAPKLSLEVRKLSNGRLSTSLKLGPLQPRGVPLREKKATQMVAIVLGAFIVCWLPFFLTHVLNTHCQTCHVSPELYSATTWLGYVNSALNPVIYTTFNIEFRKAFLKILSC
Procedure: Affinity of compounds for the human D3 receptor can be determined by [^3H] spiperone binding CHO cells have been transfected by the cDNA coding for the human D3 receptor (hD3). [^3H]Spiperone (0.5 à 2 nM) binding is performed in the presence of 2.5 to 5 μg of membrane proteins in a medium containing 120 mM NaCl, 5 mM KCl, and 50 mM Tris HCl pH 7.4; incubation for 60 minutes at room temperature is performed. Non specific binding is estimated in the presence of 10 μM haloperidol. Non transfected cells are devoid of any specific binding.

Row | SMILES | Ki (human D3 receptor) | melting point
1 | COCC(=O)NC1CCC(CCN2CCC(c3cccc(C(F)(F)F)c3)CC2)CC1 (mixture of isomers) [Example 61, 2-Methoxy-N-(4-{2-[4-(3-trifluoromethylphenyl)piperidin-1-yl]ethyl}cyclohexyl)acetamide trans/cis 95/5] | 8.5 nM | 82 °C
2 | CC(=O)CC1CCC(CCN2CCN(c3ccccc3F)CC2)CC1.Cl (mixture of isomers) [Example 288, 1-(4-{2-[4-(2-Fluorophenyl)-piperazin-1-yl]ethyl}cyclohexyl)-propan-2-one, hydrochloride trans/cis 80/20] | 2.1 nM | 233 to 236 °C
3 | N#CCNC(=O)CC1CCC(CCN2CCN(c3ccccc3F)CC2)CC1 (mixture of isomers) [Example 308, N-Cyanomethyl-2-(4-{2-[4-(2-fluorophenyl)piperazin-1-yl]ethyl}cyclohexyl)acetamide trans/cis 90/10] | 3.5 nM | 164 to 167 °C
4 | CC(=O)C(=O)N1CCC(CCN2CCN(c3cccc(C(F)(F)F)c3)CC2)CC1 [Example 2, 1-(4-{2-[4-(3-trifluoromethylphenyl)piperazin-1-yl]ethyl}-piperidin-1-yl)propane-1,2-dione, hydrochloride] | 6.6 nM | –
5 | CC(=O)NCC(=O)N1CCC(CCN2CCN(c3cccc(C(F)(F)F)c3)CC2)CC1 [Example 14, N-[2-Oxo-2-(4-{2-[4-(3-trifluoromethylphenyl)piperazin-1-yl]ethyl}piperidin-1-yl)ethyl]acetamide] | 15.1 nM | 133 °C
6 | Cl.N#CCC(=O)N1CCC(CCN2CCN(c3cccc(C(F)(F)F)c3)CC2)CC1 [Example 15, 3-Oxo-3-(4-{2-[4-(3-trifluoromethylphenyl)piperazin-1-yl]ethyl}piperidin-1-yl)propanenitrile, hydrochloride] | 15.1 nM | 184 °C
7 | COc1ccccc1N1CCN(CCC2CCN(CC(C)=O)CC2)CC1.Cl.Cl [Example 20, 1-(4-{2-[4-(2-Methoxy-phenyl)piperazin-1-yl]ethyl}piperidin-1-yl)propan-2-one, dihydrochloride] | 9.5 nM | 260 °C
8 | CC(=O)CN1CCC(CCN2CCN(c3cccc4ccccc34)CC2)CC1.Cl.Cl [Example 36, 1-{4-[2-(4-Naphthalen-1-ylpiperazin-1-yl)ethyl]piperidin-1-yl}propan-2-one] | 1.32 nM | 338 °C
9 | O=C(CO)N[C@H]1CC[C@H](CCN2CCN(c3cccc(C(F)(F)F)c3)CC2)CC1 [Example 46, 2-Hydroxy-N-(4-{2-[4-(3-trifluoromethylphenyl)piperazin-1-yl]ethyl}cyclohexyl)acetamide, hydrochloride] | 12 nM | –
10 | COCC(=O)N[C@H]1CC[C@H](CCN2CC=C(c3cccc(C)c3C#N)CC2)CC1 [Example 54, N-(4-{2-[4-(2-Cyano-3-methylphenyl)-3,6-dihydro-2H-pyridin-1-yl]ethyl}cyclohexyl)-2-methoxyacetamide] | 18.3 nM | 158 °C
11 | O=C(N[C@H]1CC[C@H](CCN2CCN(c3ccccn3)CC2)CC1)C1CC=CC1 [Example 65, Cyclopent-3-enecarboxylic acid {4-[2-(4-pyridin-2-ylpiperazin-1-yl)ethyl]cyclohexyl}amide] | 31.6 nM | 208 °C
12 | N#Cc1ccc2c(c1)CCN(CC[C@H]1CC[C@H](NC(=O)CC(F)(F)F)CC1)C2 [Example 110, N-{4-[2-(6-Cyano-3,4-dihydro-1H-isoquinolin-2-yl)ethyl]cyclohexyl}-3,3,3-trifluoropropanamide] | 10.6 nM | 215 °C
13 | NC(=O)CCC(=O)N[C@H]1CC[C@H](CCN2CCN(c3ccccc3)CC2)CC1 [Example 187, N-{4-[2-(4-Phenylpiperazin-1-yl)ethyl]cyclohexyl}succinamide] | 3.9 nM | 252 °C
14 | O=C(C=C1CCC(CCN2CCN(c3cccc(C(F)(F)F)c3)CC2)CC1)N1CCCC1 (stereo not drawn) [Example 291, 1-Pyrrolidin-1-yl-2-(4-{2-[4-(3-trifluoromethylphenyl)piperazin-1-yl]ethyl}cyclohexylidene) ethanone] | 4.4 nM | 87 °C
15 | N#CCCCC(=O)N[C@H]1CC[C@H](CCN2CCN(c3ccc(Cl)c(Cl)c3Cl)CC2)CC1 [Example 765, 4-Cyano-N-(4-{2-[4-(2,3,4-trichlorophenyl)piperazin-1-yl]ethyl}cyclohexyl)butanamide] | – | 176 °C
16 | CCC(=O)CN1CCC(CCN2CCN(c3cccc(Cl)c3Cl)CC2)CC1 [Example 771] | – | 68 °C
17 | CON(C)C(=O)CN1CCC(CCN2CCN(c3cccc(C)c3C)CC2)CC1 [Example 772, 2-(4-{2-[4-(2,3-dimethylphenyl)piperazin-1-yl]ethyl}piperidin-1-yl)-N-methoxy-N-methylacetamide] | – | 66 °C
18 | CCOC(=O)Nc1cccc(N2CCN(CCC3CCN(CC(C)=O)CC3)CC2)c1 [Example 777, [3-(4-{2-[1-(2-oxopropyl)piperidin-4-yl]ethyl}piperazin-1-yl)phenyl]carbamic acid ethyl ester] | – | 118 °C
